{"source": "patent US9039924B2", "about": "(priority 2010, dated 2015)", "origin": "cited, not measured here", "tested_on": "rat", "conditions": "in vivo; for LD50 values below 1000 or toxic: po", "data": [{"compound": "potassium fluoride dihydrate [KF•2(H2O)]", "values": [{"measurement": "LD50 (oral-rat; mg/kg)", "value": 245, "unit": "mg/kg"}, {"measurement": "LD50 values below 1000 or toxic", "value": "below 1000"}]}, {"compound": "ammonium thiocyanide [NH4CNS]", "values": [{"measurement": "LD50 (oral-rat; mg/kg)", "value": 954, "unit": "mg/kg"}, {"measurement": "LD50 values below 1000 or toxic", "value": "below 1000"}]}, {"compound": "potassium thiosulfate pentahydrate [K2S2O3•5H2O]", "values": [{"measurement": "LD50 (oral-rat; mg/kg)", "value": 802, "unit": "mg/kg"}, {"measurement": "LD50 values below 1000 or toxic", "value": "below 1000"}]}, {"compound": "NC(N)=O", "note": "[CO(NH2)2, urea]", "values": [{"measurement": "LD50 (oral-rat; mg/kg)", "value": 8471, "unit": "mg/kg"}]}, {"compound": "potassium bromide [KBr]", "values": [{"measurement": "LD50 (oral-rat; mg/kg)", "value": 3070, "unit": "mg/kg"}]}, {"compound": "potassium chloride [KCl]", "values": [{"measurement": "LD50 (oral-rat; mg/kg)", "value": 2600, "unit": "mg/kg"}]}, {"compound": "O=N[O-].[K+]", "note": "[KNO2, potassium nitrite]", "values": [{"measurement": "LD50 values below 1000 or toxic", "value": "below 1000"}]}, {"compound": "O=NO", "note": "[NaNO2, sodium nitrite]", "values": [{"measurement": "LD50 values below 1000 or toxic", "value": "below 1000"}]}, {"compound": "potassium iodide [KI]", "values": [{"measurement": "LD50 (oral-rat; mg/kg)", "value": 1862, "unit": "mg/kg"}]}, {"compound": "N#C[O-].[K+]", "note": "[KCNO, potassium cyanate]", "values": [{"measurement": "LD50 values below 1000 or toxic", "value": "below 1000"}]}, {"compound": "N#CO", "note": "[NaCNO, sodium cyanate]", "values": [{"measurement": "LD50 (oral-rat; mg/kg)", "value": 5, "unit": "mg/kg"}, {"measurement": "LD50 values below 1000 or toxic", "value": "below 1000"}]}, {"compound": "O.O.O.O.O.O=S([O-])([O-])=S.[Na+].[Na+]", "note": "[Na2S2O3•5H2O, sodium thiosulfate pentahydrate]", "values": [{"measurement": "LD50 (oral-rat; mg/kg)", "value": 2300, "unit": "mg/kg"}]}]}
